Test results reported in article PMC3762062, “Cloning, overexpression and biocatalytic exploration of a novel Baeyer-Villiger monooxygenase from Aspergillus fumigatus Af293” (AMB Express, 2013).
Read-outs that look alike come from different tables or passages of the source.

Tests used:
BVMOAf1 (PTDH-BVMOAf1) [1] = target: T1, BVMOAf1 (PTDH-BVMOAf1) (Aspergillus fumigatus, UniProt Q4WAZ0); test: NADPH consumption at […] nm; assay type: biochemical; details: air-saturated 50 mM Tris/HCl pH 8.0, 25°C
T1 construct: gene psoF; Truncated N-terminal BVMO domain (1614 bp, 367 C-terminal residues of the 905 deleted); pCRE2 vector, E. coli TOP10; fusion kept; natural Gln in place of His in the BVMO motif (H173Q)

BVMOAf1 (PTDH-BVMOAf1) [2] = target: T1, BVMOAf1 (PTDH-BVMOAf1); test: UV-Vis absorption of purified holo flavoprotein, FAD release by SDS; assay type: binding; details: FAD 100 μM in lysis buffer; Tris/HCl pH 8.0
CCSCc1ccccc1 = test: purified protein; assay type: biochemical, Aspergillus fumigatus; details: 100 μM NADPH, air-saturated 50 mM Tris/HCl pH 8.0, 25°C
[3] = 100 μM NADPH, read-out: K M (μ M )

T1 sequence (Q4WAZ0 1-538): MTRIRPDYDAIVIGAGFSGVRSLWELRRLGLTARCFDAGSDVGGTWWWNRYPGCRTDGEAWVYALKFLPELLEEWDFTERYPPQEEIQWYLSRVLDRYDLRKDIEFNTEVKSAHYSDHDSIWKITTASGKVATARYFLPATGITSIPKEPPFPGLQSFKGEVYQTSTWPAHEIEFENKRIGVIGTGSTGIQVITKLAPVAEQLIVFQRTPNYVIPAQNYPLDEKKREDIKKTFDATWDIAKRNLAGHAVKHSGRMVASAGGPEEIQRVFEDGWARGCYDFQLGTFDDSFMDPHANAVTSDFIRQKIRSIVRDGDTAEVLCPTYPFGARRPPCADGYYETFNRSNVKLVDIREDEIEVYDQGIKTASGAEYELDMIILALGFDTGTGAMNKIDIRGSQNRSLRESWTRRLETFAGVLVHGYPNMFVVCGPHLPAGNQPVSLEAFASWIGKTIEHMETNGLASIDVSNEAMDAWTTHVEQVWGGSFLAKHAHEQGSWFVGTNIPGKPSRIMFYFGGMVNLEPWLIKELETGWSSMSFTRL

## NC(=O)C1=CN([C@@H]2O[C@H](COP(=O)(O)OP(=O)(O)OC[C@H]3O[C@@H](n4cnc5c(N)ncnc54)[C@H](O)[C@@H]3O)[C@@H](O)[C@H]2O)C=CC1
BVMOAf1 (PTDH-BVMOAf1) [1]; [3]
  Km: 118.8 ± 0.1 µM

## Cc1cc2nc3c(=O)[nH]c(=O)nc-3n(C[C@H](O)[C@H](O)[C@H](O)COP(=O)(O)OP(=O)(O)OC[C@H]3O[C@@H](n4cnc5c(N)ncnc54)[C@H](O)[C@@H]3O)c2cc1C [FAD]
BVMOAf1 (PTDH-BVMOAf1) [2]
  UV-Vis absorption of purified holo flavoprotein, FAD release by SDS: yellow fractions containing FAD-bound protein

## NC(=O)C1=CN([C@@H]2O[C@H](COP(=O)(O)OP(=O)(O)OC[C@H]3O[C@@H](n4cnc5c(N)ncnc54)[C@H](OP(=O)(O)O)[C@@H]3O)[C@@H](O)[C@H]2O)C=CC1 [NADPH]
BVMOAf1 (PTDH-BVMOAf1) [1]; rac-bicyclo[3.2.0]hept-2-en-6-one 2.0 mM (typical mixture)
  Km: < 5 µM

## NC(=O)C1=CN([C@@H]2O[C@H](COP(=O)(O)OP(=O)(O)OC[C@H]3O[C@@H](n4cnc5c(N)ncnc54)[C@H](OP(=O)(O)O)[C@@H]3O)[C@@H](O)[C@H]2O)C=CC1 [[drawing 5]]
BVMOAf1 (PTDH-BVMOAf1) [1]; [3]
  Km: 179.8 ± 0.1 µM

## BVMOAf1 (PTDH-BVMOAf1) (Aspergillus fumigatus Af293)
CCSCc1ccccc1
  Km: 23.5 ± 0.1 µM
  kcat: 0.47 ± 0.04 s⁻¹
  kcat/Km: 20000 M⁻¹ s⁻¹
